# According to patent US8841281B2, “Transition metal complexes of amino acids and related ligands and their use as catalysts, anti-microbials, and anti-cancer agents” (Virginia Tech Intellectual Properties, Inc., priority 2011, dated 2014):
# Test system: methicillin-resistant Staphylococcus aureus (MRSA)
# Test: 96 well plate dilution test, MIC against MRSA
# Format: cell-based
# Settings: Pd(AA)2 complexes against MRSA
# Protocol: Biological activities of complexes of Formula 1 were tested against various strains of bacteria using the following general procedure. It is noted that complexes of Formula 2 and Formula 3 were tested using the same procedure. Generally, 96 well plate dilution tests were performed using a 96-well plate consisting of 8 rows and 12 columns. Each well is charged with the test organism in the appropriate growth medium. The test complex is also dissolved in the test medium and the first well is charged with sufficient complex solution to provide a concentration of 250 ug/mL. […] Well 12 is used as a control with no test complex. The plates are incubated for 48 hrs in the case of bacteria and 4-5 days in the case of mycobacteria. The wells are read using a spectrophotometer measuring turbidity at 540 nm. A high optical density indicates significant cell growth while a low optical density indicates significant inhibition. All results reported are normalized in terms of inhibition of cell growth and reported as MICs.
# Biological activity is expressed in terms of the Minimum Inhibitory Concentration (MIC) in units of micrograms per mL. The MIC is the lowest concentration of the complex at which full inhibition of organism growth is observed.
# Octahedral iridium(III) complexes of Formula 2 were tested against various strains of bacteria using the procedure described above for Formula 1. Biological activity is expressed in terms of the MIC in units of micrograms per mL.
row,Compound,MIC
1,CC(N)C(=O)[O-].CC(N)C(=O)[O-].[Pd+2] (centres unmarked) [Pd(Ala)2],inactive
2,"O=C([O][Pd][O]C(=O)C1CCCN1)C1CCCN1 (centres unmarked) [Pd(Pro)2, bis-prolinato palladium(II)]",7.5 µg/mL
3,NC(CO)C(=O)[O-].NC(CO)C(=O)[O-].[Pd+2] (centres unmarked) [Pd(Ser)2],inactive
4,palladium(II) bis-valine [Pd(Val)2],9.0 µg/mL

# Test system: M. smegmatis
# Test: 96 well plate dilution test, MIC against M. smegmatis
# Format: cell-based
# Settings: Iridium piano stool complexes
row,Compound,M. smegmatis MIC
1,Cp*IrCl (L-Alanine) [1 (L-ala)],7.5 µg/mL
2,Cp*IrCl (L-Leucine) [1 (L-leu)],3.9 µg/mL
3,Cp*IrCl (L-Proline) [1 (L-pro)],3.9 µg/mL
4,Cp*IrCl (L-Valine) [1 (L-val)],3.9 µg/mL

# Same assay, conditions: Ruthenium piano stool complexes
row,Compound,M. smegmatis MIC
1,CC(C)C(N)C(=O)[O-].Cc1ccc(C(C)C)cc1.[Cl-].[Ru+2] [Ru(p-cymene)Val],7.5 µg/mL
2,CC(N)C(=O)[O][Ru][Cl].Cc1ccc(C(C)C)cc1 [Ru(p-cymene)ala],7.5 µg/mL
3,CC(C)CC(N)C(=O)[O-].Cc1ccc(C(C)C)cc1.[Cl-].[Ru+2] [Ru(p-cymene)leu],3.9 µg/mL

# Test system: E. coli
# Test: MIC of complexes against E. coli
# Format: cell-based
# Settings: not given
row,Compound,MIC ug/mL E. coli
1,C1=CCCC=CCC1.C[P](C)(C)[Ir+]([P](C)(C)C)[P](C)(C)C.[Cl-] [Ir(COD)(PMe3)3],60 µg/mL

# Test system: M. chelonae
# Test: 96 well plate dilution test, MIC against M. chelonae
# Format: cell-based
# Settings: not given
row,Compound,M. chelonae MIC
1,Cp*IrCl (L-Alanine) [1 (L-ala)],7.5 µg/mL
2,Cp*IrCl (L-Leucine) [1 (L-leu)],3.9 µg/mL
3,Cp*IrCl (L-Proline) [1 (L-pro)],7.5 µg/mL
4,Cp*IrCl (L-Serine) [1 (L-ser)],Inactive
5,Cp*IrCl (L-Valine) [1 (L-val)],7.5 µg/mL

# Same assay, conditions: Iridium piano stool complexes
row,Compound,M. chelonae MIC
1,Cc1c(C)c(C)[c-](C)c1C.NC(Cc1ccc(O)cc1)C(=O)[O-].[Cl-].[Ir+3] [Ir(Cp*)L-Tyr],Inactive

# Same assay, conditions: Ruthenium piano stool complexes
row,Compound,M. chelonae MIC
1,CC(C)C(N)C(=O)[O-].Cc1ccc(C(C)C)cc1.[Cl-].[Ru+2] [Ru(p-cymene)Val],7.5 µg/mL
2,CC(N)C(=O)[O][Ru][Cl].Cc1ccc(C(C)C)cc1 [Ru(p-cymene)ala],7.5 µg/mL
3,CC(C)CC(N)C(=O)[O-].Cc1ccc(C(C)C)cc1.[Cl-].[Ru+2] [Ru(p-cymene)leu],7.5 µg/mL

# Test system: M. abscessus
# Test: 96 well plate dilution test, MIC against M. abscessus
# Format: cell-based
# Settings: Iridium piano stool complexes
row,Compound,M. abscessus MIC
1,Cp*IrCl (L-Alanine) [1 (L-ala)],7.5 µg/mL
2,Cp*IrCl (L-Proline) [1 (L-pro)],3.9 µg/mL
3,Cp*IrCl (L-Valine) [1 (L-val)],7.5 µg/mL

# Same assay, conditions: Ruthenium piano stool complexes
row,Compound,M. abscessus MIC
1,CC(C)C(N)C(=O)[O-].Cc1ccc(C(C)C)cc1.[Cl-].[Ru+2] [Ru(p-cymene)Val],7.5 µg/mL
2,CC(N)C(=O)[O][Ru][Cl].Cc1ccc(C(C)C)cc1 [Ru(p-cymene)ala],7.5 µg/mL
3,CC(C)CC(N)C(=O)[O-].Cc1ccc(C(C)C)cc1.[Cl-].[Ru+2] [Ru(p-cymene)leu],7.5 µg/mL

# Test system: S. Aur
# Test: Activity against S. Aur (Table VIIIB)
# Format: cell-based, Staphylococcus aureus
# Settings: not given
row,Compound,Activity (MIC) S. Aur
1,"CN(C)CCN [4 (N,N-dimethyl ethylenediamine)]",>250 µg/mL

# Test system: MRSA
# Test: Activity against MRSA strains (Table VIIIB, compounds used alone)
# Format: cell-based, Staphylococcus aureus
# Settings: strain PI-1
row,Compound,Activity (MIC) MRSA PI-1
1,"CN(C)CCN [4 (N,N-dimethyl ethylenediamine)]",>250 µg/mL

# Same assay, conditions: strain PI-34380
row,Compound,Activity (MIC) MRSA PI-34380
1,"CN(C)CCN [4 (N,N-dimethyl ethylenediamine)]",>250 µg/mL

# Same assay, conditions: strain PI-34864
row,Compound,Activity (MIC) MRSA PI-34864
1,"CN(C)CCN [4 (N,N-dimethyl ethylenediamine)]",>250 µg/mL

# Same assay, conditions: strain PI-36361
row,Compound,Activity (MIC) MRSA PI-36361
1,"CN(C)CCN [4 (N,N-dimethyl ethylenediamine)]",>250 µg/mL

# Same assay, conditions: strain PI-43300
row,Compound,Activity (MIC) MRSA PI-43300
1,"CN(C)CCN [4 (N,N-dimethyl ethylenediamine)]",>250 µg/mL

# Same assay, conditions: strain PI-52300
row,Compound,Activity (MIC) MRSA PI-52300
1,"CN(C)CCN [4 (N,N-dimethyl ethylenediamine)]",>250 µg/mL

# Same assay, conditions: strain PI-53016
row,Compound,Activity (MIC) MRSA PI-53016
1,"CN(C)CCN [4 (N,N-dimethyl ethylenediamine)]",>250 µg/mL

# Test system: Mycobacterium smegmatis strain mc^2155
# Test: not given
# Format: cell-based
# Settings: not given
row,Compound,Minimal Inhibitory Concentration (MIC) M. smegmatis
1,Cp*IrCl (L-Alanine) [1 (L-ala)],15 µg/mL
2,Cp*IrCl (L-Leucine) [1 (L-leu)],32 µg/mL
3,Cp*IrCl (L-Proline) [1 (L-pro)],10 µg/mL
4,Cp*IrCl (L-Serine) [1 (L-ser)],>250 µg/mL
5,Cp*IrCl (L-Valine) [1 (L-val)],17 µg/mL

# Test system: Mycobacterium bovis strain BCG
# Test: not given
# Format: cell-based
# Settings: not given
row,Compound,Minimal Inhibitory Concentration (MIC) M. bovis
1,Cp*IrCl (L-Alanine) [1 (L-ala)],31 µg/mL
2,Cp*IrCl (L-Proline) [1 (L-pro)],15 µg/mL
3,Cp*IrCl (L-Valine) [1 (L-val)],31 µg/mL

# Test system: Mycobacterium avium strain A5
# Test: not given
# Settings: not given
row,Compound,Minimal Inhibitory Concentration (MIC) M. avium
1,Cp*IrCl (L-Alanine) [1 (L-ala)],>250 µg/mL
2,Cp*IrCl (L-Leucine) [1 (L-leu)],>250 µg/mL
3,Cp*IrCl (L-Proline) [1 (L-pro)],125 µg/mL
4,Cp*IrCl (L-Serine) [1 (L-ser)],>250 µg/mL
5,Cp*IrCl (L-Valine) [1 (L-val)],>250 µg/mL

# Test system: Mycobacterium intracellulare
# Test: not given
# Settings: not given
row,Compound,Minimal Inhibitory Concentration (MIC) M. intracellulare
1,Cp*IrCl (L-Alanine) [1 (L-ala)],61 µg/mL
2,Cp*IrCl (L-Leucine) [1 (L-leu)],32 µg/mL
3,Cp*IrCl (L-Proline) [1 (L-pro)],61 µg/mL
4,Cp*IrCl (L-Valine) [1 (L-val)],>250 µg/mL

# Test system: Mycobacterium abscessus strain AAy-P-1
# Test: not given
# Settings: not given
row,Compound,Minimal Inhibitory Concentration (MIC) M. abscessus
1,Cp*IrCl (L-Alanine) [1 (L-ala)],31 µg/mL
2,Cp*IrCl (L-Leucine) [1 (L-leu)],32 µg/mL
3,Cp*IrCl (L-Proline) [1 (L-pro)],15 µg/mL
4,Cp*IrCl (L-Valine) [1 (L-val)],61 µg/mL

# Test system: Mycobacterium marinum ATCC 927
# Test: not given
# Settings: not given
row,Compound,Minimal Inhibitory Concentration (MIC) M. marinum
1,Cp*IrCl (L-Alanine) [1 (L-ala)],>250 µg/mL
2,Cp*IrCl (L-Leucine) [1 (L-leu)],>250 µg/mL
3,Cp*IrCl (L-Proline) [1 (L-pro)],>250 µg/mL
4,Cp*IrCl (L-Valine) [1 (L-val)],>250 µg/mL

# Test system: Mycobacterium chelonae strain EO-P-1
# Test: not given
# Settings: not given
row,Compound,Minimal Inhibitory Concentration (MIC) M. chelonae
1,Cp*IrCl (L-Alanine) [1 (L-ala)],61 µg/mL
2,Cp*IrCl (L-Leucine) [1 (L-leu)],32 µg/mL
3,Cp*IrCl (L-Proline) [1 (L-pro)],15 µg/mL
4,Cp*IrCl (L-Valine) [1 (L-val)],31 µg/mL

# Test system: mycobacteria, Staphylococcus aureus and methicillin-resistant S. aureus (MRSA)
# Test: not given
# Settings: among Ir, Ru, Rh L-α-amino acid complexes
row,Compound,relative anti-mycobacterial / antibiotic activity
1,Cp*IrCl (L-Proline) [1 (L-pro)],highest activity
